Paper PMC6572376, “N1-Propargylguanosine Modified mRNA Cap Analogs: Synthesis, Reactivity, and Applications to the Study of Cap-Binding Proteins” (Molecules, 2019)

Experiments:
[1] = molecular target: murine eIF4E (Mus musculus, UniProt P63073); assay: Pyrene fluorescence intensity competition binding assay for eIF4E
Excerpt: The prime role of the mRNA cap is to participate in initiation of translation through binding with eIF4E. Therefore, we investigated how the substitution at the N1 position influences the interaction between the cap analogs and eIF4E. To this end, we performed binding competition experiments with a Py-labeled m^7GTP analog as previously described. Thence, we determined IC50 values and calculated binding constants values (KD) for the cap analog-eIF4E complexes (Table 1, Figure 2). […] Additionally, the differences identified among studied compounds derived from triphosphate chain modifications were in agreement with previously published results.
A previously described pyrene fluorescence intensity binding method was used to determine the dissociation constants of the nonfluorescent ligands binding to the eIF4E protein in a competitive binding experiment. The experiments were performed in 96-well, black, non-binding assay plates with point fluorescence measurements (λexc = 345 nm; λem = 378 nm). Each well contained a buffer (50 mM Hepes/KOH pH = 7.2 containing 100 mM KCl and 0.5 mM EDTA), 10 nM of pyrene-labeled 7-methylguanosine pentaphosphate probe, ligand 1–5 or m^7Gp3G (half-log dilutions of Clig from 100 μM to 0.003 μM), and 75 nM of eIF4E protein. The reagents and added protein were pre-incubated for 15 min at 30 °C and stirred at 300 rpm. Measurements were performed in three different temperatures: At 20, 30, and 37 °C. A previously derived Equation (1) was used to calculate the inhibition (dissociation) constant KI of a competitive ligand according to the dependence of the recorded fluorescence intensity on the inhibitor concentration. (1) KI=IC50−[Pt]+[PL]50(KD/[L]50+1)/[L]50/KD+[P]0/KD+1 where IC50 is the inhibitor concentration required to replace 50% of the fluorescent probe from the protein binding site, [Pt] is the total protein concentration, [PL]50 is the protein–probe complex concentration at 50% inhibition, [L]50 is the free probe concentration at 50% inhibition, and [P]0 is the free protein concentration without inhibition.
In order to determine IC50 value, we used Origin® 2017 (OriginLab Corp., Northampton, MA, USA) software to fit the curve described by the derived Equation (2) to the measured fluorescence intensity values for various inhibitor concentrations. (2) F=F0Fmax−F0/1+10^(log(IC50)−log(Clig.))p where Clig. is the concentration of non-fluorescent ligand.
Figure 2 Dose–response curves for compounds 1–5 and m^7Gp3G plotted from a competition binding assay for meIF4E [16]. eIF4E (75 nM) and a pyrene-labeled fluorescent probe (10 nM) were incubated at 30 °C with the indicated concentrations of the investigated compounds (1–5 or m^7Gp3G as a reference).

[2] = molecular target: T1, human DcpS (hDcpS) (Homo sapiens, UniProt Q96C86); assay: Microscale thermophoresis direct binding to hDcpS; settings: for Kd: MST, 25 nM probe, 25 °C, 1:1 binding model, triplicate
T1 construct: made in house
T1 sequence (Q96C86 1-337): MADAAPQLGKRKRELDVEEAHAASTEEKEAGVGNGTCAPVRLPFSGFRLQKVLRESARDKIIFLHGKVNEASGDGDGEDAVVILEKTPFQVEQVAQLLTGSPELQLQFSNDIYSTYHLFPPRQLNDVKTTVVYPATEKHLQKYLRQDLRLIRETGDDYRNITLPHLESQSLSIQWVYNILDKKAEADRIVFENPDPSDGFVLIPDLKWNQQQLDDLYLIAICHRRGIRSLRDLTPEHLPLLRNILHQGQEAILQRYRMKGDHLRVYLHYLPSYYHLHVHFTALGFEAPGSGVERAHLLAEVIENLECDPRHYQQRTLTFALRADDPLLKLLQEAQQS
Description: With these promising results in mind, we decided to use the same approach for studying DcpS enzyme. For this purpose, cleavage-resistant probes 11 and 12 were used. Both probes were high-affinity ligands for DcpS. […] This is in agreement with previously reported data on the influence of triphosphate chain modifications on cap-DcpS interaction.
Probes 11 and 12 were dissolved in MST buffer (50 mM HEPES/KOH, 100 mM KCl, 0.5 mM EDTA, pH = 7.2, 0.2% Tween 20) to obtain a 50 nM stock solution. In study of a probe 11, human DcpS (hDcpS) was dissolved in MST buffer in a 16 point 1:1 dilution series in a 2.0 µM to 0.061 nM concentration range. Equal volumes (10 µL) of hDcpS and the probe were mixed together to obtain the following assay concentrations: 25 nM probe and 1.0 µM to 0.030 nM hDcpS. In study of a probe 12, hDcpS was dissolved in MST buffer in a 16 point 2:1 dilution series in a 700 nM to 1.60 nM concentration range. Equal volumes (10 µL) of hDcpS and the probe were mixed together to obtain the following assay concentrations: 25 nM probe and 350 nM to 0.80 nM hDcpS.
(§1) For both assays, samples were loaded into standard Monolith™ NT.115 Series Capillares (NanoTemper Technologies, Cambridge, MA, USA). MST measurements were performed on Monolith NT.115 instrument (NanoTemper Technologies, Cambridge, MA, USA) at 25 °C. Measurements parameters were set as follows: 40% LED Blue power, Medium MST power. Data were obtained for three independently pipetted measurements and analyzed in PALMIST v. 1.4.4 [36] using a 1:1 binding model to calculate KD, using the signal from an MST-on time of 20 s (for eIF4E assay: Cold region start, −3 s; hot region start, 0.5 s; for DcpS assay: Cold region start, −3 s; hot region start 19 s), confidence intervals were calculated with error surface projection (ESP) method. Plots presented were generated using GUSSI v. 1.4.2 [37].
Figure 5 Direct binding microscale thermophoresis (MST) experiments with eIF4E and DcpS. (a) MST binding curves for probes 6, 11, 12, and meIF4E. […] Data were analyzed in Palmist v. […]

[3] = molecular target: murine eIF4E (meIF4E) (Mus musculus, UniProt P63073); assay: Microscale thermophoresis direct binding to meIF4E; settings: MST, 25 nM probe, 25 °C, 1:1 binding model, triplicate
murine eIF4E (meIF4E), sequence (P63073 whole entry): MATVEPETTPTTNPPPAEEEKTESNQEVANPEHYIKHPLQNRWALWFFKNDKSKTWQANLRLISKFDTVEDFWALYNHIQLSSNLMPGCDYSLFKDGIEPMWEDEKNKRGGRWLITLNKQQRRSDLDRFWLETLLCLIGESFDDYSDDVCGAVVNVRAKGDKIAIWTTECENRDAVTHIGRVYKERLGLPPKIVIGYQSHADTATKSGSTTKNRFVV
Description: To this end, fluorescent probes (25 nM) were mixed with increasing concentrations of meIF4E and microscale thermophoresis was measured for each sample (Figure S5). Baseline corrected normalized fluorescences (ΔFn) determined from the MST traces were plotted as a function of protein concentration. KD values could then be calculated from the resulting binding curves (Figure 5). […] These findings align with those determined for the parent compounds 1, 2, and 3 (Table 1).
Probes 6, 11, and 12 were dissolved in MST buffer (50 mM HEPES/KOH, 100 mM KCl, 0.5 mM EDTA, pH = 7.2, 0.2% Tween 20) to obtain a 50 nM stock solution. Murine eIF4E (meIF4E) was dissolved in MST buffer in a 16 point, 1:1 dilution series in a 10.0 µM to 0.30 nM concentration range. Equal volumes (10 µL) of meIF4E and probe were combined to obtain the following assay concentrations: 25 nM probe and 5.0 µM to 0.15 nM meIF4E for the assay.
as §1
Figure 5 Direct binding microscale thermophoresis (MST) experiments with eIF4E and DcpS. (a) MST binding curves for probes 6, 11, 12, and meIF4E. Probe 6, 11, or 12 (50 nM) was mixed with a half-log dilution series of an meIF4E solution (10 µM–0.30 nM). (b) MST binding curves for probes 11 and 12 and DcpS. […] Data were analyzed in Palmist v. […]

[4] = molecular target: T2, human decapping scavenger enzyme (hDcpS) (Homo sapiens, UniProt Q96C86); assay: Susceptibility to hDcpS hydrolysis monitored by RP-HPLC; settings: 30 µM cap analog, 30 nM hDcpS, 30 °C
T2 sequence (Q96C86 1-337): T1 sequence (Q96C86 1-337)
Description: (§2) Susceptibility of the new cap analogs to hydrolysis by human decapping scavenger enzyme (hDcpS) was investigated to assess the influence of N1 substitution on cap analogs recognition by DcpS. Caps 1–5 or m^7Gp3G (30 µM each) were incubated with hDcpS (30 nM) at 30 °C. Then, reaction samples were thermally deactivated and analyzed by RP-HPLC.
(§3) Enzymatic reactions with human DcpS were carried out in 50 mM Tris/HCl, 200 mM KCl, 0.5 mM EDTA, pH = 7.6 buffer at 30 °C for 30 nM hDcpS and 30 µM of a cap analog studied. As a control, m^7Gp3G was used. Cap analogs concentration was determined spectrophotometrically (absorption coefficient used in calculations is equal to 22,600 mL/mmol/cm in 0.1 M phosphate buffer pH = 7.0). For 1 and m^7Gp3G, 3 independent experiments were performed. Aliquots were terminated by heat inactivation for 3 min at 95 °C. Samples were analyzed with RP-HPLC using method E.
(§4) Data are average of triplicate experiments ± SD.

[5] = molecular target: T2, human decapping scavenger enzyme (hDcpS); assay: in vitro; settings: pH 7.6
Description: as §2, §3, §4

[6] = 30 °C, 75 nM eIF4E, 10 nM pyrene-labeled probe, triplicate
[7] = 30 °C, calculated from IC50 values

murine eIF4E, sequence (P63073 whole entry): as above

Row | SMILES | IC50 ([1]; 20 °C) [µM] | Kd ([1]; 20 °C, calculated from IC50) [µM] | IC50 [1, 6] [µM] | Kd [1, 7] [µM] | IC50 ([1]; 37 °C) [µM] | Kd ([1]; 37 °C, calculated from IC50) [µM] | Fold greater affinity for DcpS than probe 11 ([2]; MST KD ratio) [fold] | Kd [2] [µM] | Kd [3] [µM] | Half-life [4] [min] | half-life at 30 µM [5] [min] | Susceptibility to hydrolysis by hDcpS ([4]; RP-HPLC)
1 | C[n+]1cn([C@@H]2O[C@H](COP(=O)(O)NP(=O)(O)OP(=O)([O-])OC[C@H]3O[C@@H](n4cnc5c(=O)n(Cc6cn(CCCNC(=O)c7ccc8c(c7)C(=O)OC87c8ccc(O)cc8Oc8cc(O)ccc87)nn6)c(N)nc54)[C@H](O)[C@@H]3O)[C@@H](O)[C@H]2O)c2nc(N)nc(O)c21 [Compound 12, m^7GpNHppG-N1-5FAM] | – | – | – | – | – | – | 2.5 | 0.014 | 0.053 | – | – | –
2 | C[n+]1cn([C@@H]2O[C@H](COP(=O)(O)OP(=O)([O-])OP(=O)(O)OC[C@H]3O[C@@H](n4cnc5c(=O)n(Cc6cn(CCCNC(=O)c7ccc8c(c7)C(=O)OC87c8ccc(O)cc8Oc8cc(O)ccc87)nn6)c(N)nc54)[C@H](O)[C@@H]3O)[C@@H](O)[C@H]2O)c2nc(N)nc(O)c21 [Compound 6, m^7Gp3G-N1-5FAM] | – | – | – | – | – | – | – | – | 0.05 | – | – | –
3 | Cn1c[n+]([C@@H]2O[C@H](COP(=O)(O)OP(=O)(O)OP(=O)(O)OC[C@H]3O[C@@H](n4cnc5c(=O)[nH]c(N)nc54)[C@H](O)[C@@H]3O)[C@@H](O)[C@H]2O)c2nc(N)[nH]c(=O)c21 [m^7Gp3G, reference compound] | 3.04 ± 0.26 | 0.279 ± 0.045 | 3.46 ± 0.3 | 0.294 ± 0.046 | 3.31 ± 0.87 | 0.334 ± 0.096 | – | – | – | 5.703 | – | –
4 | C#CCn1c(N)nc2c(ncn2C2OC(COP(=O)(O)NP(=O)(O)OP(=O)([O-])OCC3OC(n4c[n+](C)c5c(O)nc(N)nc54)C(O)C3O)C(O)C2O)c1=O (stereo not drawn) [Compound 5, P1-(N7-Methylguanosin-5′-yl) P3-(N1-propargylguanosin-5′-yl) 2,3-imidotriphosphate] | 1.85 ± 0.15 | 0.168 ± 0.026 | 2.16 ± 0.2 | 0.182 ± 0.029 | 3.21 ± 0.33 | 0.324 ± 0.048 | – | – | – | – | – | –
5 | C[n+]1cn([C@@H]2O[C@H](COP(=O)(O)CP(=O)(O)OP(=O)([O-])OC[C@H]3O[C@@H](n4cnc5c(=O)n(Cc6cn(CCCNC(=O)c7ccc8c(c7)C(=O)OC87c8ccc(O)cc8Oc8cc(O)ccc87)nn6)c(N)nc54)[C@H](O)[C@@H]3O)[C@@H](O)[C@H]2O)c2nc(N)nc(O)c21 [Compound 11, m^7GpCH2ppG-N1-5FAM] | – | – | – | – | – | – | – | 0.038 | 0.201 | – | – | –
6 | C#CCn1c(N)nc2c(ncn2C2OC(COP(=O)(O)OP(=O)([O-])OP(=O)(O)OCC3OC(n4c[n+](C)c5c(O)nc(N)nc54)C(O)C3O)C(O)C2O)c1=O (stereo not drawn) [Compound 1, P1-(N1-Propargylguanosin-5′-yl) P3-(N7-methylguanosin-5′-yl) triphosphate] | 2.92 ± 0.19 | 0.268 ± 0.04 | 3.57 ± 0.25 | 0.305 ± 0.045 | 3.68 ± 0.7 | 0.371 ± 0.082 | – | – | – | – | 15.8 | efficiently cleaved by DcpS but more slowly than m^7Gp3G

The next lines start with results.

Row | IC50 ([1]; 20 °C) [µM] | Kd ([1]; 20 °C, calculated from IC50) [µM] | IC50 [1, 6] [µM] | Kd [1, 7] [µM] | IC50 ([1]; 37 °C) [µM] | Kd ([1]; 37 °C, calculated from IC50) [µM] | Fold greater affinity for DcpS than probe 11 ([2]; MST KD ratio) [fold] | Kd [2] [µM] | Kd [3] [µM] | Half-life [4] [min] | half-life at 30 µM [5] [min] | SMILES | Susceptibility to hydrolysis by hDcpS ([4]; RP-HPLC)
7 | 6.57 ± 0.49 | 0.61 ± 0.094 | 6.37 ± 0.73 | 0.548 ± 0.095 | 8.2 ± 0.79 | 0.836 ± 0.121 | – | – | – | – | – | C#CCn1c(N)nc2c(ncn2C2OC(COP(=O)([O-])OP(=O)(O)CP(=O)(O)OCC3OC(n4c[n+](C)c5c(O)nc(N)nc54)C(O)C3O)C(O)C2O)c1=O (stereo not drawn) [Compound 2, P1-(N7-Methylguanosin-5′-yl) P3-(N1-propargylguanosin-5′-yl) 1,2-methylenetriphosphate] | –
8 | 5.51 ± 0.33 | 0.511 ± 0.075 | 6.04 ± 0.46 | 0.52 ± 0.078 | 8.1 ± 0.61 | 0.826 ± 0.109 | – | – | – | – | – | C#CCn1c(N)nc2c(ncn2C2OC(COP(=O)(O)CP(=O)(O)OP(=O)([O-])OCC3OC(n4c[n+](C)c5c(O)nc(N)nc54)C(O)C3O)C(O)C2O)c1=O (stereo not drawn) [Compound 4, P1-(N7-Methylguanosin-5′-yl) P3-(N1-propargylguanosin-5′-yl) 2,3-methylenetriphosphate] | –
9 | 3.06 ± 0.16 | 0.281 ± 0.041 | 3.48 ± 0.22 | 0.297 ± 0.043 | 3.75 ± 0.89 | 0.379 ± 0.1 | – | – | – | – | – | C#CCn1c(N)nc2c(ncn2C2OC(COP(=O)([O-])OP(=O)(O)NP(=O)(O)OCC3OC(n4c[n+](C)c5c(O)nc(N)nc54)C(O)C3O)C(O)C2O)c1=O (stereo not drawn) [Compound 3, P1-(N7-Methylguanosin-5′-yl) P3-(N1-propargylguanosin-5′-yl) 1,2-imidotriphosphate] | –
